Laboratory results published in patent US10428347B2, “Herbicide-detoxifying enzymes and uses thereof” (priority 2017, dated 2019).
Values joined by “and” are separate entries in the source; they are usually repeats but may differ in a detail not shown here. Identical values can stand only once. Like-named read-outs stand apart in the source and are kept apart here.

What was measured:
[1] = system: soybean seedlings; test: Spray of enzyme-treated dicamba solution onto soybean seedlings; format: in vivo; conditions: one week
Experimental: Salicylate monooxygenase (SM, SEQ ID NO: 21) and hydroxyphenylacetate monooxygenase (HPAM, SEQ ID NO: 30) were immobilized on particles. […] Aliquots (1 ml) were taken from incubated samples at 0 minutes, 10 minutes, 30 minutes, 1 hour, 5 hours, 24 hours and 30 hours after the introduction of SM and immediately frozen to stop the detoxification reaction. NADPH consumption was quantified by measuring loss of absorbance at 340 nm using a spectrophotometer. Results for SM are shown in panel A of FIG. 10 and results for HPAM are shown in panel A of FIG. 11. Consumption of NADPH is proportional to the degradation of dicamba.
Immediately after taking the absorbance measurements, the 1 ml aliquots were mixed with a nonionic organosilicone surfactant copolymer (0.1% SILWET L77) and 200 μL of the mixture was sprayed onto 2.5-week-old soybean seedlings (six plants per treatment group, on average). The use of the surfactant ensured even distribution of the solutions on the plants. Control plants were sprayed with water+surfactant alone or dicamba+surfactant alone. After one week, the degree of herbicide damage or the degree of protection from dicamba-induced injury (in plants treated with SM) was assessed visually.

[2] = oxidation of NADH
Excerpt: Spectra were read from 200-700 nm with a BioTek SYNERGY HTX plate reader (BioTek Instrument Inc.).
NADH disappears when the molecule is oxidized to NAD^+.

[3] = system: soybean plants; test: Trifoliate damage scoring of soybean treated with SM1-dicamba reaction products; format: in vivo; design: key: 0: No visible damage; 1: youngest trifoliate has moderate yellowing or curling; 2: youngest trifoliate has moderate yellowing or curling; 3: youngest trifoliate has severe yellowing or curling; 4: youngest trifoliate is completely dead or shriveled; 5: plant is completely necrotic (dead); conditions: V1 soybean (Morsoy Xtra), 100 μL reaction product diluted 1:24 with 0.01% SILWET L-77 on trifoliate leaves, 6 plants; Time (hours) 2; scale 0-5
Excerpt: These SM1-dicamba degradation products were applied to soybean seedlings (variety, Morsoy Xtra). […] The plants were scored based on trifoliate damage using the scale as described in Table 27.

[4] = system: soybean plants; test: V1 soybean bioassay of dicamba reacted with ChD with or without MnSO4
Experimental: Soybean plants (variety Morsoy Xtra) were planted in Timberline soil (2 seeds per pot) and grown for 12 days under controlled environmental growth conditions: 300 μmol m^−2 s^−1 (light photons) for a 13/11 light/day cycle and a 21° C. day/15° C. night temperature range until the V1 stage of development.
The dilution to achieve 100 ppm or 100 mg/L was made in 25 mM HEPES pH 7 in a 10 mL total volume. […] The ChD enzyme production was centrifuged to remove any cellular debris and then divided into aliquots of 100 μL containing the Bacillus subtillis (A64) filtrate with the ChD expressed enzyme. […] The reactions were incubated at 37° C. with 400 ppm stirring for two hours. Aliquots of the reactions were collected and stored at −80° C.

[5] = system: sensitive plants; conditions: in vivo; cited from earlier work
[6] = HPLC; for Dicamba (ppm): samples diluted to expected 35 ppm
Experimental: A Bacillus subtilis (A64) control reaction, which was supernatant with no SM1 enzyme was performed in parallel. The reactions were incubated at 37° C. with 400 rpm stirring for two hours. Aliquots of the reactions were collected at time 0 (T0), 1 hour, and 2 hours, and frozen at −80° C.
HPLC column (Kinetex® 5 μm C18 100 Å, LC Column 50×4.6 mm) was equilibrated for 15 minutes with 35% acetonitrile and 65% 10 mM ammonium acetate with 0.1% formic acid in water. A volume of 10 μL of each sample was injected into Waters 2695 Separations Module with a 2996 Photodiode Array Detector. Samples were run isocratically (35% acetonitrile and 65% 10 mM ammonium acetate with 0.1% formic acid in water) for 2 minutes. […] An average of 3 measurements was run for each treatment sample.
The HPLC results as reported in FIG. 2 are the average of 3 sample measurements.

[7] = Spray tank cleaning procedure using salicylate monooxygenase to remove dicamba; conditions: spray application using dicamba
[8] = system: soybean; test: Spray tank dicamba treated with ChD crude cell lysate, applied to field soybean; format: in vivo; conditions: field soybean V2-V3, 2 ml of tank sample (about 200 mg/L dicamba, with or without 5% v/v crude cell lysate for 10 minutes), one week after application (FIG. 15)
Experimental: Chlorothalonil dehalogenase (ChD, SEQ ID NO: 168) was prepared as a crude cell lysate as described above in Example 5. […] A 5% v/v solution of the crude cell lysate containing the ChD enzyme was added and the tank was run for an additional 10 minutes. […] Each of the samples was frozen immediately after collection from the tank. Samples were transported to the field on ice to ensure that enzyme activity was halted.

[9] = Absorbance spectra assay of dicamba degradation by ChD or CAC; conditions: dicamba (CLASH) 200 mg/L alone (no enzyme), 50 mM HEPES pH 7.0, one hour at 37° C.
[10] = system: lentil plants; test: Lentil seeds coated with immobilized enzyme, grown in dicamba-containing soil; format: in vivo
Experimental: For each treatment group, eighteen lentil seeds were coated with immobilized salicylate monooxygenase (SM, SEQ ID NO: 21) or hydroxyphenylacetate monooxygenase (HPAM, SEQ ID NO: 30), or with a water-only control (H2O) or a control containing only the particles used for immobilization, without any enzyme (“Particle Alone”). […] 50 ml of water was selected as this is the saturation point of this soil at this scale. Herbicides were allowed to sit in the soil for 24 hours before planting of coated seeds. Germination rate was measured at one week and root and shoot lengths were measured after two weeks.
Further data illustrating the protective effects of salicylate monooxygenase (SM) and hydroxyphenylacetate monooxygenase (HPAM) on lentil plants grown in dicamba-containing soil are provided in FIGS. 6-9. Lentil seeds were treated as described above with water alone, particle alone, or enzyme immobilized on a particle. […] Growth (shoot and root length) was measured at two weeks.

[11] = NADPH consumption by immobilized salicylate monooxygenase with salicylic acid; format: biochemical; conditions: immobilized enzyme, salicylic acid 150 μM, 30° C., 60 minutes (FIG. 3)
Experimental: (§1) An additional experiment was performed to assess the substrate specificity of the salicylate monooxygenase (SM, SEQ ID NO: 21). […] The assay buffer also contained 0.5 mM FeSO4, 0.5 mM NADPH, 10 mM MgCl2, and 25 mM HEPES (pH 7). After 60 minutes, absorbance at 340 nm was measured to detect NADPH consumption. Data are represented as averages+/−SD from three independent reads of each reaction.

[12] = NADPH consumption by immobilized monooxygenases with 2,4-D; format: biochemical; conditions: immobilized enzyme, 2,4-D 150 μM, 30° C., 60 minutes, vs no enzyme negative control (FIG. 3)
Experimental: Monooxygenases can be used to detoxify herbicides in a solution. Monooxygenases use NADPH as a co-factor when degrading substrates. Consumption of NADPH is proportional to the degradation of the substrate.
The ability of each of these enzymes to detoxify 2,4-D was evaluated in a similar manner. […] Aliquots were taken from the samples at 30 minute and one hour timepoints, and NADPH consumption was assessed by measuring absorbance at 340 nm.
as §1

[13] = NADPH consumption by immobilized monooxygenases with dicamba; format: biochemical; conditions: immobilized enzyme, dicamba 150 μM, 30° C., 60 minutes, vs no enzyme negative control (FIG. 3)
[14] = 2,4-D degradation by TfdA (2,4-dichlorophenol colorimetric assay and HPLC); format: biochemical
Experimental: They were cloned, expressed, and produced in production batches as previously described for SM1 and other pesticide detoxifying enzymes. […] Reactions were then added to a 15 mL conical tube and placed in a shaker at 30° C. Aliquots consisting of 1 mL were taken from each reaction at the desired time points and flash frozen in a −80° C. freezer for later testing.
The 2,4-D degradation reaction samples were defrosted and vortexed. Samples consisting of 200 μL of each reaction were removed and placed in a 96 well plate. To each well on the assay plate containing a reaction sample, […] pH 10 (0.309 g boric acid, 0.373 g potassium chloride, 4.4 mL 1 M NaOH per 100 mL solution), 2 μL 2% 4-aminoantipyrine, and 2 μL 8% potassium ferricyanide were added. The wells were mixed by back pipetting. The plate was then covered with a film and placed in a 30° C. incubator for 1 hour.

[15] = dicamba 100 ppm, n=6, scale 0-5

COc1c(Cl)ccc(Cl)c1C(=O)O [Dicamba, 3,6-dichloro-2-methoxybenzoic acid]
herbicide damage or protection from dicamba-induced injury, assessed visually ([1]; 2.5-week-old soybean seedlings sprayed with 208 μM dicamba solution with or without immobilized enzyme): significant curling of the leaves and stunted growth
Absorbance at 340 nM ([2]; Time 1 hour): 0.059
Absorbance at 340 nM ([2]; Time 2 hours): 0.058
Absorbance at 340 nM ([2]; Time T0): 0.056
average trifoliate damage score [3]: 4
Average Epinasty Score [4, 15]: 3.0
average trifoliate damage score [4, 15]: 3.5
average trifoliate damage score ([4]; dicamba alone at 100 ppm, 150 ppm and 200 ppm): 3.5-3.6
dicamba spray level at which sensitive plants show herbicide damage with pronounced symptoms [5]: 0.017 kg/ha
Percent Dicamba Concentration Relative to T0 control ([6]; Time 0 hours): 100.0%
Dicamba (ppm) ([6]; Time 0 hours, 25 mM HEPES pH 7, 37° C.): 34.9 ppm
Percent Dicamba Concentration Relative to T0 control ([6]; Time 1 hour): 113.6%
Dicamba (ppm) ([6]; Time 1 hour, 25 mM HEPES pH 7, 0.5 mM NADH where stated, 37° C.): 39.7 ppm
Percent Dicamba Concentration Relative to T0 control ([6]; Time 2 hours): 106.0%
Dicamba (ppm) ([6]; Time 2 hours, 25 mM HEPES pH 7, 0.5 mM NADH where stated, 37° C.): 37.0 ppm
safe zone concentration in rinsate (no injury or harm to the plant or the environment) [7]: ≤ 15 mg/L
damage to or protection of soybean crop (size and growth vs untreated control) [8]: significant damage to the crops
Absorbance Maxima at Wavelength (λ) 230 [9]: 1.597 and 1.5967
Absorbance Maxima at Wavelength (λ) 259 [9]: 0.1597
Absorbance Maxima at Wavelength (λ) 280 [9]: 0.2845

B1: SM: salicylate monooxygenase from Bacillus cereus BGSC 6E1, amino acid SEQ ID NO: 21 (nucleotide SEQ ID NO: 1) (protein, listed as Bacillus cereus)
chain: MNNVIIIGGGIAGLCAAISLQKIGLDVKVYDKNTEPTVAGAGIIIAPNAMQALELYGISKKIKKFGNESDGFNLVSEKGTTFNKLIIPTCYPKMYSIHRKDLHQLLLSELKEDTVKWGKECVKIEQNEANALKIVFQDGSEALGNILIAADGIHSVIRKQVTQGDNYRYAGYTCWRGVTPANNLSLTNDFIETWGTNGRFGIVPLPNNEVYWYALINAKARDPKYKAYTTTDLYNHFKTYHNPIPSILKNASDIDMIHRDIIDITPMKQFFDKRIVFIGDAAHALTPNLGQGACQAIEDAIILAECIKNNAHYRQAFLEYEQKRRDRIEKISNTAWKVGKMAQIESKPLTLVRNEVMKRMPKWVSEKRTHELYSFHL
germination rate ([10]; lentil seeds coated with immobilized enzyme, soil with dicamba 0.1× or […] label rate, one week, vs water and particle-alone controls): positive effect
shoot length ([10]; two-week-old lentil, soil with dicamba 0.1× label rate (0.588 mg/L), vs water only or particle only controls (FIG. 6, FIG. 8)): increased shoot lengths
incubation time of enzyme with dicamba giving plants equivalent to the water control ([1]; 208 μM dicamba, immobilized enzyme, 30° C., soybean seedlings): ≤ 10 min
NADPH consumption [11]: higher activity
NADPH consumption [12]: statistically significant levels
NADPH consumption [13]: statistically significant levels

B2: TfdA: 2,4-D alpha-ketoglutarate dioxygenase with A198V mutation, SEQ ID NO: 277 (protein, UniProt P10088 1-287, looked up)
Alpha-ketoglutarate-dependent …: MSVVANPLHPLFAAGVEDIDLREALGSTEVREIERLMDEKSVLVFRGQPLSQDQQIAFARNFGPLEGGFIKVNQRPSRFKYAELADISNVSLDGKVAQRDAREVVGNFANQLWHSDSSFQQPAARYSMLSAVVVPPSGGDTEFCDMRAAYDALPRDLQSELEGLRAEHYALNSRFLLGDTDYSEAQRNAMPPVNWPLVRTHAGSGRKFLFIGAHASHVEGLPVAEGRMLLAELLEHATQREFVYRHRWNVGDLVMWDNRCVLHRGRRYDISARRELRRATTLDDAVV
2,4-dichlorophenol generated ([14]; 2,4-D with TfdA enzyme, after 1 hour of incubation, 30° C. (FIG. 19)): over 2 mg/L
reduction of 2,4-D concentration quantified by HPLC ([14]; 2,4-D with TfdA, at 4 hours (FIG. 20)): ~10%
